Laboratory results as given in patent EP4644377A1, “LIPID COMPOUND FOR GENE DELIVERY AND LIPID NANOPARTICLE COMPRISING SAME” (NANJING CYBERNAX BIOMEDICAL TECHNOLOGY CO., LTD., priority 2022, dated 2024).

Columns and labels:
[1] = test system: 293T cells; assay: In vitro delivery of luciferase mRNA by LNPs, 293T cells; type: cell-based, Human; conditions: 100 ng luciferase mRNA per well, 24 h; ratio to naked mRNA control; result in words
Experimental: (§1) Human embryonic kidney cells (293T cells) and human non-small cell lung cancer cell lines (A549 cells) were obtained from the Chinese Type Culture Collection Center and cultured in DMEM high glucose culture medium containing 10% fetal bovine serum under the environment of 37°C and 5% CO2. The cells were inoculated in a 96-well cell culture plate in a density of 32,000 cells per well. LNPs coating mRNA expressing luciferase (Trilink, USA) were taken and added into the wells at a dose of 100 ng of mRNA per well. Meanwhile, control wells were set on each culture plate, and 100 ng of naked mRNA that was not coated by LNPs was added into each well. The cell culture plate was placed in a cell incubator for 24 h of co-culture under the conditions of 37°C and 5% CO2, and then the transfection effect of mRNA was detected through a One-LumiTM firefly luciferase reporter gene detection kit. The transfection results of LNPs in 293T cells are shown in FIG. 1 to FIG. 6 and FIG. 13 (upper), and the transfection results of LNPs in A549 cells are shown in FIG. 7 to FIG. 12 and FIG. 13 (lower). The transfection efficiency is expressed as a ratio of chemiluminescent intensity of LNP group to chemiluminescent intensity of control group (direct delivery of naked luciferase mRNA that is not coated by LNP).

[2] = test system: A549 cells; assay: In vitro delivery of luciferase mRNA by LNPs, A549 cells; type: cell-based, human; conditions: 100 ng luciferase mRNA per well, 24 h; ratio to naked mRNA control; result in words
Experimental: as §1

[3] = test system: C57Bl/6 mice; assay: Luciferase mRNA delivery in mice, IVIS chemiluminescence; type: in vivo
Experimental: The animal experiments were reviewed and approved by the Ethics Committee of Zhejiang Medical College and the Ethics Committee of Zhejiang University of Technology. 6- to 8-week-old male C57Bl/6 mice were randomly grouped with 3 mice in each group. The mice in each group received a lipid nanoparticle coating mRNA expressing a luciferase via tail vein injection at a dose of 0.25 mg/kg mouse body weight (calculated by the mass of coated mRNA). […] The mRNA delivery effect of the lipid nanoparticle is quantitatively compared through a total chemiluminiscence quantity (Total Flux p/s) of a mouse whole body within unit time (shown in Table 5).
Table 13 and Table 14 show whole body chemiluminescent signals when LNPs (formulation 2) composed of the lipids in some examples deliver Flue mRNA in mice. The delivery dose of Flue mRNA was 0.25 mg/kg. 6 h after LNP injection, 150 mg/kg of D-luciferin was intraperitoneally injected into the mice, and then the whole body chemiluminescent signals were collected in the IVIS imaging system after 10 min. […]

[4] = test system: 293T cells; assay: In vitro eGFP plasmid DNA transfection; type: cell-based; conditions: 100 ng plasmid DNA per well, 48 h, fluorescence microscope, versus lipofectamine 3000
Experimental: 293T cells were inoculated into a 96-well cell culture plate at a density of 40,000 cells per well, LNPs prepared from lipid 284 and lipid 424 was used to coat plasmid DNA expressing eGFP, lipofectamine 3000 was used as a control group, 100 ng of plasmid DNA coated by the above vehicle was given to cells per well, the expression of eGFP was observed through a fluorescence microscope after co-culture for 48 h.

[5] = Particle size detection of LNP (Brookhaven NanoBrook Omni, DLS); type: physicochemical
Experimental: Step 1. Preparation of a lipid solution and a nucleic acid solution: unless otherwise specified, all aqueous solutions involved in examples were prepared from deionized water without nucleases. An ionizable lipid, a phospholipid (disaturated phosphatidylcholine (DSPC) or dioleoylphosphatidylethanolamine (DOPE)), cholesterol and a PEG lipid (DMG-PEG2000) were mixed in a molar ratio of 50/10/38.5/1.5 (containing DSPC, formulation 1) or 36.5/16/46.5/2.5 (containing DOPE, formulation 2) and dissolved into an ethanol solution. Meanwhile, a nucleic acid (a mass ratio of ionizable lipid/nucleic acid was 10/1) was dissolved into a citrate buffer solution of pH=3, so that a final volume ratio of the ethanol solution to the citrate solution was 1/3.
Step 2. Preparation of LNP by mixing the lipid solution with the nucleic acid solution: the lipid ethanol solution and the nucleic acid aqueous solution that were prepared in Step 1 were respectively put into a sterile syringe and placed in a Precision Nanosystem Ignite instrument, the extrusion flow speeds of the ethanol solution and the water phase solution were respectively set as 3 ml/min and 9 ml/min in instrument program settings. A microfluidic chip was inserted into the instrument and LNP preparation was initiated, and then a solution mixed by the chip was collected.
Step 2.1. Preparation of an LNP solution coating nucleic acid in a porous plate: a solution of an ionizable lipid, a phospholipid (DSPC or DOPE), cholesterol and a PEG lipid (DMG-PEG2000) in ethanol was added into each well of a 96-well deep plate, so that a molar ratio of four component lipids in each well was 50/10/38.5/1.5 (containing DSPC, formulation 1) or 36.5/16/46.5/2.5 (containing DOPE, formulation 2). Then, a citrate buffer solution (pH=3, the mass of nucleic acid added into each well was 1/10 that of the ionizable lipid in this well) that was three times as ethanol in volume and dissolved with a nucleic acid molecule was quickly added into the well plate through a multi-channel pipette or an automatic liquid dispensing system and rapidly mixed, so as to obtain the LNP solution coating nucleic acid.
Step 3. Purification of the LNP solution: the LNP solution collected in Step 2 or Step 2.1 was subjected to dialysis-concentration-filtration operations, so as to obtain a final LNP solution coating nucleic acid for subsequent testing.
The LNP solution coating nucleic acid obtained in Step 3 was diluted so that the final lipid concentration was between 0.01 mg/ml and 0.1 mg/ml. The diluted solution was added into a sample reservoir, and then subjected to particle size detection in a Brookhaven NanoBrook Omni instrument.

[6] = Determination of total nucleic acid and encapsulation efficiency (Quant-iT RiboGreen RNA kit); type: physicochemical; conditions: for encapsulation efficiency: LNP with RSV-mRNA, lipid ratio of formulation 1, N/P 6
Experimental: The content of nucleic acids in an LNP sample was determined through a Quant-iT™ RiboGreen® RNA detection kit (Thermofisher). The detection of total RNA concentration: 5 µl of to-be-detected sample was placed into 2 ml of ep tube, 245 µl of 1xTE Buffer was added, and the above materials were evenly mixed to obtain a "diluted sample". 100 µl of the above "diluted sample" was taken, 100 µl of 10% TritonX-100 solution was added, the above materials were sufficiently and evenly mixed, and then the obtained mixture was demulsified for 15 min in metal bath under the conditions of 37°C and 300 rpm; and 80 µl of 1xTE Buffer was added into an ELISA plate, 20 µl of demulsified sample was taken and added into the ELISA plate to be evenly mixed, and then 100 µl of fluorescence dye (2000-fold dilution) solution was added.
Detection of free RNA concentration: 90 µl of 1xTE Buffer was added into the ELISA plate, 10 µl of the above "diluted sample" was taken, and 100 µl of fluorescence dye (2000-fold dilution) solution was added.
Meanwhile, a series of standard solutions having different concentrations were set in the ELISA plate as quantitative standard curves. The samples were loaded onto the ELISA plate to detect fluorescence signals (with an excitation wavelength of 480 nm and an emission detection wavelength of 520). A corresponding RNA concentration was obtained after the fluorescence signal in each well was converted via the standard curve.
Calculation method of encapsulation efficiency: EE(%) = (Concentration of total mRNA−concentration of free mRNA)/(Concentration of total mRNA)∗100% [formula]

[7] = test system: respiratory syncytial virus (RSV); assay: RSV mRNA vaccine in mice, RSV true virus neutralizing antibody titers; type: in vivo, BALB/c mice; conditions: 10 µg per mouse i.m., two immunizations three weeks apart, serum 14 days after the second; result in words versus antigen protein or SM102
Experimental: An RSV antigen mRNA sequence with a pre-fusion F protein conformation was prepared by a cap analogue co-transcription method, the sequence information is as shown in sequence 1 (SEQ ID NO: 1), and the amino acid sequence of the expressed antigen protein is as shown in sequence 2 (SEQ ID NO: 2). LNPs containing RSV-mRNA were prepared by respectively using lipid 174 and sm102 in a lipid ratio of formulation 1, wherein N/P was 6. The particle sizes and mRNA encapsulation efficiency data of two LNPs are as follows: lipid 174 has a particle size of 77.6 nm and an encapsulation efficiency of 96.2%; and sm102 has a particle size of 96.1 nm and an encapsulation efficiency of 97.9%. The LNP preparation encapsulating RSV mRNA and an F protein antigen with a pre-fusion conformation were intramuscularly administrated to BALB/c mice at a dose of 10 µg per mouse, with immunization once every three weeks for two immunizations in total. 14 days after secondary immunization, mouse serum was collected and submitted to CRO for detection of RSV true virus neutralizing antibody titers.

[8] = test system: enhanced green fluorescent protein (EGFP) gene; assay: LNP delivery of gene editing system (spCas9 mRNA + sgGFP), GFP knockout by flow cytometry; type: cell-based; conditions: HEK 293/eGFP-aavs1 cells, 200 ng total RNA per well, 48 h, average
Experimental: LNPs were prepared by using a composition ratio in formulation 2 and simultaneously coating spCas9 mRNA and sgRNA (sgGFP sequence: […]) with lipid 284, wherein N/P was 6, and a mass ratio of mRNA to sgRNA was 3/1. By DLS detection, the particle size of LNP was about 130 nm, PDI was 0.15, and the RNA encapsulation efficiency was greater than 95%. An HEK 293/eGFP-aavs1 stable cell line stably expressing a green fluorescence protein (GFP) was inoculated into a 96-well cell culture plate at a density of 40,000 cells per well. After incubation for 24 h, LNPs containing 200 ng of total RNA were added into each well, cells were collected after 48 h and the knockout efficiency cells of GFP were detected on a flow cytometer.

[9] = LNP formulation 2 (SM102: formulation 1), luciferase mRNA 0.25 mg/kg, tail vein, C57Bl/6 mice, whole body signal 6 h after LNP, 10 min after D-luciferin 150 mg/kg i.p.
[10] = LNPs after coating mRNA (luciferase)
[11] = LNP with RSV-mRNA, lipid ratio of formulation 1, N/P 6
[12] = formulation 2, spCas9 mRNA and sgRNA 3/1, N/P 6, DLS

SMILES: CC/C=C\C/C=C\C/C=C\C/C=C\C/C=C\CCCC(=O)N(CCCN(C)C)C(C(=O)NCCCCCCCCCCCCCC)C(C)(C)C (stereo not drawn) [Lipid 157]
- transfection (delivery) efficiency of LNP in 293T cells [1]: relatively high delivery efficiency
- transfection (delivery) efficiency of LNP in A549 cells [2]: relatively high delivery efficiency
- Chemiluminescent signal (p/s) [3, 9]: 4.26E+09 p/s

SMILES: CCCCCCCCC(CCCCCC)C(=O)OCCCCCCNC(=O)C(N(CCCN(C)C)C(=O)CCCCCCC(=O)OCC(C)CCCCCCC)C(C)(C)C (stereo not drawn) [Lipid 424]
- eGFP expression (delivery efficiency and positive cell ratio) [4]: delivery efficiencies and positive cell ratios exceed those in control group lipofectamine3000
- PDI [5, 10]: 0.11
- Particle size [5, 10]: 153 ± 2.11 nm·days
- Chemiluminescent signal (p/s) ([3]; LNPs (formulation 2), Flue mRNA 0.25 mg/kg, tail vein injection, whole body signal 6 h after LNP injection, 10 min after 150 mg/kg D-luciferin i.p.): 8.40E+ 10 p/s

SMILES: CCCCCCCCCCCOC(=O)CCCCCN(CCO)CCCCCCCC(=O)OC(CCCCCCCC)CCCCCCCC [SM102, heptadec-9-yl-8-((2-hydroxyethyl) (6-oxo-6-((undecyloxy)hexyl)amino) octanoate, reference compound]
- encapsulation efficiency [6]: 97.9%
- Particle size [5, 11]: 96.1 nm
- Chemiluminescent signal (p/s) [3, 9]: 3.93E+09 p/s

SMILES: CCCCCCCCCCCCCC(=O)N(CCCN(C)C)C(C(=O)NCCCCCCCC(=O)OC(CCCCCCCC)CCCCCCCC)C(C)(C)C (stereo not drawn) [Lipid 174]
- transfection (delivery) efficiency of LNP in 293T cells [1]: relatively high delivery efficiency
- transfection (delivery) efficiency of LNP in A549 cells [2]: relatively high delivery efficiency
- encapsulation efficiency [6]: 96.2%
- RSV true virus neutralizing antibody titer [7]: can efficiently stimulate the mouse to generate a neutralizing antibody targeting RSV
- Particle size [5, 11]: 77.6 nm
- PDI [5, 10]: 0.17
- Particle size [5, 10]: 202.44 ± 2.28 nm·days
- Chemiluminescent signal (p/s) [3, 9]: 3.15E+09 p/s

SMILES: CCCCCCCCCCCCCC(=O)N(CCCN(C)C)C(C(=O)NCCCCCCOC(=O)C(CCCCCC)CCCCCCCC)C(C)(C)C (stereo not drawn) [Lipid 284]
- RNA encapsulation efficiency ([6]; formulation 2, spCas9 mRNA and sgRNA 3/1, N/P 6): greater than 95%
- eGFP expression (delivery efficiency and positive cell ratio) [4]: delivery efficiencies and positive cell ratios exceed those in control group lipofectamine3000
- PDI [5, 12]: 0.15
- particle size of LNP [5, 12]: about 130 nm
- Chemiluminescent signal (p/s) [3, 9]: 2.42E+10 p/s
- cells with significant knockdown of GFP expression [8]: 41.2%
